For assay [1], the system named is KB. Nature of the assay: Cytotoxicity against human KB cells. The class given is functional, cell-based.
The test system of assay [2] is L1210. Nature of the assay: Cytotoxicity against mouse L1210 cells. The class given is functional, cell-based.

IC50 data for 1 compound are collected here from ChEMBL document CHEMBL1158770, “Cladionol A, a polyketide glycoside from marine-derived fungus Gliocladium species” (J Nat Prod, 2005).

Converted amounts (≈) assume the structure as drawn.

For `CCC(C)CC(C)CC(C)C(O[C@@H]1O[C@H](C(=O)OC)[C@@H](O)[C@H](O)[C@@H]1O)C(C)/C=C(\C)C(O)C(C)/C=C(\C)C(O)C(C)/C=C(\C)[C@H](O)[C@@H](C)C(=O)OC[C@H](O)[C@@H](O)[C@@H](O)CO` (some centres not stated) [CLADIONOL A], the IC50 in assay [1] turned out to be 7 µg/mL (≈ 8.11 µM); in assay [2], 5 µg/mL (≈ 5.79 µM).

Broadly, the IC50 is the concentration needed to halve the response being measured. Low values mean greater potency in that assay, high ones weaker potency in that assay.
